The record followed here is ChEMBL document CHEMBL1201862, “PubChem BioAssay data set” (2004).

Some test systems named below: SNB-78; M19-MEL; DLD-1; DMS-114; DMS-273; KM-20L2; XF498; HOP-18; RXF 631.
Holding throughout (test): NCI anticancer screen, dose series, 48 h

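Grown in 96-well plates, cells were treated for 48 hours with each compound at five concentrations. Insufficient inhibition: endpoint recorded as highest concentration tested. GI50 = concentration required for 50% inhibition of growth.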 Calls of active or inactive are those of the source. Cut-off read from the data, not from the text of the source: active = GI50 up to about 1.1 µM and inactive = higher.

In the case of `Cc1nc(Nc2ccc(Cl)cc2)sc1C(=O)Nc1cccc2c(=O)[nH][nH]c(=O)c12`, the GI50 in the experiment on SNB-78 was > 100 µM (inactive); in the experiment with M19-MEL, 30.3 µM (inactive); in the experiment on DLD-1, 17.5 µM (inactive); in the experiment on DMS-114 it was 19.2 µM (inactive); in the experiment on DMS-273 it was 7.24 µM (inactive); with KM-20L2 it was 11.8 µM (inactive).
For the compound `COc1cccc2c1C(=O)c1c(O)c3c(c(O)c1C2=O)C[C@@](O)(/C(C)=N/NC(=O)c1ccccc1)C[C@@H]3OC1CC(N)C(O)C(C)O1` (stereo not given in full), the GI50 was 0.0803 µM (active) in the experiment on XF498; 0.658 µM (active) in the experiment with SNB-78; 0.302 µM (active) with M19-MEL; 0.454 µM (active) in the experiment with HOP-18; 1.69 µM (inactive) in the experiment with DLD-1; 0.202 µM (active) with DMS-114. In addition, the GI50 in the experiment on DMS-273 is 0.157 µM (active); in the experiment on KM-20L2 it was 0.807 µM (active).
Turning to `NNC(=S)N/N=C(/C(=O)Nc1ccc([N+](=O)[O-])cc1)c1nc2ccc([N+](=O)[O-])cc2nc1O`, the GI50 in the experiment with XF498 was > 100 µM (inactive); with SNB-78, > 100 µM (inactive); in the experiment with M19-MEL it was > 100 µM (inactive); with HOP-18 it was > 100 µM (inactive); in the experiment with DLD-1, > 100 µM (inactive); in the experiment on DMS-114 it was 77.6 µM (inactive).
For `CC1=CCP(C(F)(F)F)P(C(F)(F)F)C1` (stereo not given), the GI50 in the experiment with RXF 631, in the experiment on SNB-78, in the experiment on M19-MEL, in the experiment with HOP-18, with DLD-1 and with DMS-114 was > 100 µM (inactive) in each case. Further, the GI50 with KM-20L2 was > 100 µM (inactive).
With `Nc1nc(N)c2c(Cl)c(CNc3ccc(Cl)c(Cl)c3)ccc2n1`, the GI50 was 2.07 µM (inactive) in the experiment on XF498; 7.19 µM (inactive) in the experiment on SNB-78; 0.0238 µM (active) with M19-MEL; 0.716 µM (active) in the experiment on HOP-18; < 0.01 µM (active) in the experiment with DLD-1; < 0.01 µM (active) in the experiment with DMS-114. The GI50 with DMS-273 is < 0.0259 µM (active); with KM-20L2, 0.225 µM (active).
`c1ccc2c(c1)cc1n2CC2CN=NC12` (stereo not given): the GI50 in the experiment on RXF 631, in the experiment with SNB-78, in the experiment on M19-MEL, in the experiment on DLD-1, in the experiment with DMS-273 and with KM-20L2 was > 100 µM (inactive) in each case.
With `CCOP(=O)(OCC)C1=NC=CC=CC1n1c(-c2ccccc2)nn(CC)c1=O` (stereo not given), the GI50 in the experiment with RXF 631, in the experiment with M19-MEL, in the experiment on HOP-18, with DLD-1, in the experiment with DMS-114 and with DMS-273 was > 100 µM (inactive) throughout. Besides, in the experiment on KM-20L2, the GI50 was > 100 µM (inactive).
As for `CC1=C(C(=O)Nc2ccc([N+](=O)[O-])cc2)C(c2ccccc2F)C(C(=O)Nc2ccc([N+](=O)[O-])cc2)=C(C)N1`, the GI50 is 21.3 µM (inactive) with RXF 631; 1.48 µM (inactive) in the experiment with XF498; 14.2 µM (inactive) in the experiment on M19-MEL; 8.45 µM (inactive) in the experiment with DLD-1; 5.07 µM (inactive) in the experiment with DMS-114; 12.3 µM (inactive) in the experiment with KM-20L2.
With `CC1C[C@]2(C[C@@H](C)C(=O)O2)O[C@@H]2CC3(C)[C@@H]4CCC5C(C)(C)OC(=O)C[C@H]6OO[C@]4(CC[C@]3(C)C12)CC56O` (stereo not given in full), the GI50 in the experiment on XF498, in the experiment with SNB-78, in the experiment on HOP-18, with DLD-1, in the experiment with DMS-114 and with DMS-273 was > 100 µM (inactive) throughout.
In the case of `CCOC(=O)/C(=C/c1cccc(Cl)c1)N(CC)CC`, the GI50 with XF498 was 46.3 µM (inactive); in the experiment with M19-MEL, 88.7 µM (inactive); in the experiment with HOP-18, 24.2 µM (inactive); with DLD-1, 48.9 µM (inactive); in the experiment with DMS-114 it was 31 µM (inactive).
Turning to `COC(=O)C(=Cc1cc(OC)c(OC)c(OC)c1-c1cc2c(cc1C1(C)OCCS1)OCO2)C(=O)OC` (stereo not given), the GI50 was 31.4 µM (inactive) in the experiment on RXF 631; 23 µM (inactive) with M19-MEL; 27.6 µM (inactive) in the experiment with DLD-1; 19.8 µM (inactive) in the experiment on DMS-114; 23.2 µM (inactive) with DMS-273; 22.3 µM (inactive) with KM-20L2.
Consider `COc1ccc(O)cc1` [MEQUINOL], for which the GI50 in the experiment with XF498 was > 100 µM (inactive); with SNB-78, > 100 µM (inactive); in the experiment on M19-MEL it was 95.3 µM (inactive); in the experiment on DLD-1, > 100 µM (inactive); in the experiment with DMS-114 it was 48.4 µM (inactive); in the experiment with KM-20L2 it was 28.6 µM (inactive).
Regarding `O=C1OC(=O)c2c1c(-c1ccccc1)nc1ccccc21`, the GI50 in the experiment with RXF 631, in the experiment with XF498, with SNB-78, with M19-MEL, in the experiment with DLD-1 and with DMS-114 was > 100 µM (inactive) throughout. Further, the GI50 in the experiment with DMS-273 and in the experiment on KM-20L2 was > 100 µM (inactive) throughout.
As to `CC(C)c1ccccc1NC(=O)C(=O)Cc1nc2ccccc2s1`, the GI50 in the experiment on RXF 631, in the experiment on SNB-78, in the experiment on M19-MEL, with HOP-18, in the experiment with DMS-114 and in the experiment with DMS-273 was > 100 µM (inactive) each time. For the same compound, the GI50 in the experiment with KM-20L2 is > 100 µM (inactive).
On to `Cc1cc(S(=O)(=O)O)c(NC(=O)C(=O)Cc2cc(=O)oc3cc(O)ccc23)cc1Cl`, for which the GI50 with RXF 631, in the experiment with M19-MEL, in the experiment on HOP-18, in the experiment on DLD-1, with DMS-114 and in the experiment with DMS-273 was > 100 µM (inactive) in each case. Further, the GI50 in the experiment with KM-20L2 is > 100 µM (inactive).
In the case of `COc1cccc(C2CC23C(=O)NC(=O)NC3=O)c1` (stereo not given), the GI50 with XF498, with SNB-78, in the experiment with M19-MEL, in the experiment with DMS-114, with DMS-273 and in the experiment on KM-20L2 was > 100 µM (inactive) throughout.
Consider `Cn1cc(C(=O)c2ccccc2)cc(C(=O)c2ccccc2)c1=O`, for which the GI50 in the experiment with RXF 631, with XF498, in the experiment with SNB-78, in the experiment on M19-MEL, in the experiment on DLD-1 and in the experiment with DMS-114 was > 100 µM (inactive) throughout. Also, the GI50 in the experiment with DMS-273 and with KM-20L2 was > 100 µM (inactive) in each case.
As for `CCOC(=O)C(Cc1cc(OC)c(CC(C(=O)OCC)C(=O)OCC)cc1OC)C(=O)OCC`, the GI50 is 21.6 µM (inactive) in the experiment with XF498; 57.9 µM (inactive) in the experiment with SNB-78; > 100 µM (inactive) in the experiment with M19-MEL; > 100 µM (inactive) in the experiment on DLD-1; > 100 µM (inactive) in the experiment on DMS-114; > 100 µM (inactive) in the experiment on DMS-273. Moreover, the GI50 with KM-20L2 is > 100 µM (inactive).
On to `CC1(C)Oc2ccccc2[N+]([O-])=C1c1ccccc1`, for which the GI50 in the experiment with RXF 631, in the experiment on SNB-78, in the experiment with M19-MEL, with DLD-1, with DMS-114 and with DMS-273 was > 100 µM (inactive) each time. For the same compound, in the experiment on KM-20L2, the GI50 was > 100 µM (inactive).
On to `COc1ccc(/C=C2\C(=O)N(C(=O)Cc3ccccc3)N=C2C)cc1OC`, for which the GI50 with XF498, with SNB-78, in the experiment with M19-MEL, with HOP-18, with DMS-114 and in the experiment on DMS-273 was > 100 µM (inactive) throughout.
Take `COc1ccc2[nH]c3ccc4cc[n+](CCN5CCC(C6CCN(CC[n+]7ccc8ccc9[nH]c%10ccc(OC)cc%10c9c8c7)CC6)CC5)cc4c3c2c1`: the GI50 was > 60.1 µM (inactive) in the experiment on XF498; 9.12 µM (inactive) with SNB-78; 0.719 µM (active) in the experiment on M19-MEL; 1.79 µM (inactive) in the experiment on HOP-18; 0.824 µM (active) with DLD-1; 0.125 µM (active) in the experiment on DMS-114. Further, the GI50 in the experiment on DMS-273 is 0.23 µM (active); in the experiment on KM-20L2 it was 1.36 µM (inactive).
As for `O=C1NC2(O)c3ccccc3C(=O)C2(O)N1c1ccccc1` (stereo not given), the GI50 with RXF 631, with XF498, in the experiment with M19-MEL, in the experiment on HOP-18, with DLD-1 and in the experiment on DMS-114 was > 100 µM (inactive) each time. In the experiment with KM-20L2, the GI50 was > 100 µM (inactive).
For `Cc1cccc2c1Sc1ccccc1C2NC(=O)CCN(C)C` (stereo not given), the GI50 with SNB-78, with M19-MEL, with DLD-1, with DMS-114, in the experiment on DMS-273 and with KM-20L2 was > 100 µM (inactive) throughout.
For `CC(C1=CC=C2[C@@H]3CCC4CC(N(C)C)CC[C@]4(C)C3CC[C@]12C)N(C)C=O` (stereo not given in full), the GI50 in the experiment on M19-MEL is > 100 µM (inactive); in the experiment with HOP-18, > 100 µM (inactive); in the experiment with DLD-1, > 100 µM (inactive); in the experiment on DMS-114 it was 91.6 µM (inactive); in the experiment on DMS-273, > 100 µM (inactive).
Consider `COc1ccc(NC(=O)/C(=N/O)C(C)=O)cc1`, for which the GI50 in the experiment on SNB-78 is > 100 µM (inactive); with HOP-18, > 100 µM (inactive); in the experiment with DLD-1 it was 42.5 µM (inactive); in the experiment on DMS-114 it was 36.7 µM (inactive); in the experiment with DMS-273, > 100 µM (inactive); in the experiment with KM-20L2, 87.9 µM (inactive).
For the compound `N#C/N=C(/N)NCN/C(N)=N\C#N`, the GI50 in the experiment on RXF 631 was > 100 µM (inactive); in the experiment on SNB-78, > 100 µM (inactive); with M19-MEL, > 100 µM (inactive); with HOP-18, > 100 µM (inactive); with DLD-1, 81.5 µM (inactive); with DMS-114, > 100 µM (inactive). In addition, the GI50 is 58.9 µM (inactive) with DMS-273 and > 100 µM (inactive) with KM-20L2.
Regarding `CCC12CCCN(Cc3ccccc3)C1c1c(n(C)c3ccccc13)[C@H](C(=O)OC)C2` (stereo not given in full), the GI50 was > 239 µM (inactive) in the experiment with RXF 631; 201 µM (inactive) with XF498; 130 µM (inactive) in the experiment with M19-MEL; > 239 µM (inactive) in the experiment with DLD-1; 226 µM (inactive) with DMS-114; > 239 µM (inactive) with DMS-273. The GI50 in the experiment on KM-20L2 was 120 µM (inactive).
